The assay concerns the target T1, endothelial lipase (EL) (Homo sapiens, UniProt Q9Y5X9).
T1 construct: Conditioned media obtained from HT-1080 cells, which were transformed by RAGE technology (Athersys) to overexpress endogenous EL; endogenous in cells; conditioned medium used as the enzyme source
T1 sequence (Q9Y5X9 21-500): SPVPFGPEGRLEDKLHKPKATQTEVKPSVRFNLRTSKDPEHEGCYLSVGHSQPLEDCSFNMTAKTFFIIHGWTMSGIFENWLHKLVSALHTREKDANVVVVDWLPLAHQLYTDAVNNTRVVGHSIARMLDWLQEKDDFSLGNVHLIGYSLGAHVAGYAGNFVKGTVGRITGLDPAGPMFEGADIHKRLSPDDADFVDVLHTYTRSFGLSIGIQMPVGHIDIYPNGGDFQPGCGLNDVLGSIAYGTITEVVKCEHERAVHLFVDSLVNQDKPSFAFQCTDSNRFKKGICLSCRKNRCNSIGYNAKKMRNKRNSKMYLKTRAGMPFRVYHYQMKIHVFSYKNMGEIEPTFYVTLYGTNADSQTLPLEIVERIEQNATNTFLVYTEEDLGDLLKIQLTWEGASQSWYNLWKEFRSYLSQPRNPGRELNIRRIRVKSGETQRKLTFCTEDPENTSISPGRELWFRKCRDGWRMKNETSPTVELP
In words: Endothelial lipase (EL) enzymatic assay with fluorescent substrate A10070 in DMPG vesicles. In kind it is biochemical. The note with it: conditioned media from HT-1080 cells overexpressing endogenous EL; 20 min preincubation at 37° C.; read-out: HLE_EL_CRC IC50. The protocol: Endothelial lipase activity was measured using a fluorescent substrate, A10070, (Invitrogen, CA) doped into an artificial vesicle containing DMPG (Avanti Polar Lipids) as the excipient. Vesicles were prepared by combining 285 uL of 1 mM DMPG in a 1:1 mixture of MeOH and CHCl3 with 15 uL of 1 mM A10070 in a 1:1 mixture of MeOH and CHCl3. The mixture was dried under nitrogen and resuspended in 150 uL of 50 mM HEPES pH 8.0 buffer containing 100 mM NaCl and 0.2 mM EDTA. The sample was allowed to sit at rt for 15 min and then was sonicated 3×4 mins on ice with a Branson Sonicator using duty cycle 1. This preparation provides vesicles with a mole fraction of 0.05 for the FRET substrate.
The enzymatic assay was measured using white, opaque 96-well half area plates. Each well contained 60 uL of assay buffer (50 mM HEPES pH 8.0, 50 mM NaCl and 1 mM CaCl2) and 2 ul of a DMSO solution containing compound of interest. Conditioned media obtained from HT-1080 cells, which were transformed by RAGE technology (Athersys) to overexpress endogenous EL, was added and the reaction was allowed to incubate for 20 min at 37° C. with gentle agitation. The reaction was started by the addition of 20 uL of a 1:4 dilution of vesicles. The final total reaction volume was 100 uL. The reaction rates were measured on a Gemini plate reader with an excitation wavelength of 488 nm and a emission of 530 nm. Readings were taken every 20 seconds for 10 min with agitation between each reading. The slope of the linear portion of the readout was used to calculate the rate of the reaction.
As a reminder, the IC50 is the concentration at which inhibition is half-maximal. On to `CC(C)C(CCc1ccc(Cl)c(Cl)c1)NC(=O)c1ccn(C)c(=O)c1O` (single isomer, unassigned) [Example 114, N-(1-(3,4-dichlorophenyl)-4-methylpentan-3-yl)-3-hydroxy-1-methyl-2-oxo-1,2-dihydropyridine-4-carboxamide], for which the half-maximal inhibitory concentration (IC50) was 6.86 µM.
In the case of `CC(C)C(CCc1ccc(Cl)c(Cl)c1)NC(=O)c1ccn(C)c(=O)c1O` (single isomer, unassigned) [Example 115, N-(1-(3,4-dichlorophenyl)-4-methylpentan-3-yl)-3-hydroxy-1-methyl-2-oxo-1,2-dihydropyridine-4-carboxamide], the IC50 was determined as 1.79 µM.
As for `Cn1ccc(C(=O)NC(CCc2ccc(Cl)c(Cl)c2)C2CC2)c(O)c1=O` (single isomer, unassigned) [Example 118, N-(1-cyclopropyl-3-(3,4-dichlorophenyl)propyl)-3-hydroxy-1-methyl-2-oxo-1,2-dihydropyridine-4-carboxamide], the IC50 stood at 2.7 µM.
In the case of `Cn1ccc(C(=O)NC(CCc2ccc(Cl)c(Cl)c2)C2CC2)c(O)c1=O` (single isomer, unassigned) [Example 119, N-(1-cyclopropyl-3-(3,4-dichlorophenyl)propyl)-3-hydroxy-1-methyl-2-oxo-1,2-dihydropyridine-4-carboxamide] it was 1.62 µM; in that of `Cn1ccc(C(=O)NC(CCc2ccc(Cl)c(Cl)c2)c2ccccc2)c(O)c1=O` (single isomer, unassigned) [Example 120, N-(3-(3,4-dichlorophenyl)-1-phenylpropyl)-3-hydroxy-1-methyl-2-oxo-1,2-dihydropyridine-4-carboxamide], 0.167 µM; in that of `Cn1c(-c2cc(F)cc(C(F)(F)F)c2)cc(C(=O)NCCCc2ccc(Cl)c(Cl)c2)c(O)c1=O` [Example 7, N-(3-(3,4-dichlorophenyl)propyl)-6-(3-fluoro-5-(trifluoromethyl)phenyl)-3-hydroxy-1-methyl-2-oxo-1,2-dihydropyridine-4-carboxamide], below 0.01 µM.
In the case of `Cn1c(-c2ccc(Cl)c(C(F)(F)F)c2)cc(C(=O)NCCCc2ccc(Cl)c(Cl)c2)c(O)c1=O` [Example 8, 6-(4-chloro-3-(trifluoromethyl)phenyl)-N-(3-(3,4-dichlorophenyl)propyl)-3-hydroxy-1-methyl-2-oxo-1,2-dihydropyridine-4-carboxamide] it was below 0.01 µM; in that of `Cn1c(-c2cc(F)cc(F)c2)cc(C(=O)NCCCc2ccc(Cl)c(Cl)c2)c(O)c1=O` [Example 19, N-(3-(3,4-dichlorophenyl)propyl)-6-(3,5-difluorophenyl)-3-hydroxy-1-methyl-2-oxo-1,2-dihydropyridine-4-carboxamide], below 0.01 µM; in that of `Cn1c(-c2cccc(C(=O)O)c2)cc(C(=O)NCCCc2ccc(Cl)c(Cl)c2)c(O)c1=O` [Example 45, 3-(4-(3-(3,4-dichlorophenyl)propylcarbamoyl)-5-hydroxy-1-methyl-6-oxo-1,6-dihydropyridin-2-yl)benzoic acid], 0.199 µM.
The same measure for `Cn1c(-c2cc(F)cc(C(F)(F)F)c2)cc(C(=O)NCCCOc2ccccc2Cl)c(O)c1=O` [Example 48, N-(3-(2-chlorophenoxy)propyl)-6-(3-fluoro-5-(trifluoromethyl)phenyl)-3-hydroxy-1-methyl-2-oxo-1,2-dihydropyridine-4-carboxamide]: below 0.01 µM.
On to `COc1ccc(CCNC(=O)c2cc(-c3cc(F)cc(C(F)(F)F)c3)n(C)c(=O)c2O)cc1` [Example 51, 6-(3-fluoro-5-(trifluoromethyl)phenyl)-3-hydroxy-N-(4-methoxyphenethyl)-1-methyl-2-oxo-1,2-dihydropyridine-4-carboxamide], for which the IC50 worked out at 0.178 µM.
On to `Cn1c(-c2cc(F)cc(C(F)(F)F)c2)cc(C(=O)NCCc2cccc(C(F)(F)F)c2)c(O)c1=O` [Example 56, 6-(3-fluoro-5-(trifluoromethyl)phenyl)-3-hydroxy-1-methyl-2-oxo-N-(3-(trifluoromethyl)phenethyl)-1,2-dihydropyridine-4-carboxamide], for which the IC50 came out at 0.216 µM.
Turning to `Cn1c(-c2cc(F)cc(C(F)(F)F)c2)cc(C(=O)NCCc2ccc(C(F)(F)F)cc2)c(O)c1=O` [Example 60, 6-(3-fluoro-5-(trifluoromethyl)phenyl)-3-hydroxy-1-methyl-2-oxo-N-(4-(trifluoromethyl)phenethyl)-1,2-dihydropyridine-4-carboxamide], the IC50 is 0.198 µM.
For the molecule `Cn1c(-c2cc(F)cc(C(F)(F)F)c2)cc(C(=O)NCCCOc2ccc(F)cc2)c(O)c1=O` [Example 64, 6-(3-fluoro-5-(trifluoromethyl)phenyl)-N-(3-(4-fluorophenoxy)propyl)-3-hydroxy-1-methyl-2-oxo-1,2-dihydropyridine-4-carboxamide], the IC50 was below 0.01 µM.
In the case of `COC(=O)c1cccc(OCCCNC(=O)c2cc(-c3cc(F)cc(C(F)(F)F)c3)n(C)c(=O)c2O)c1` [Example 71, methyl 3-(3-(6-(3-fluoro-5-(trifluoromethyl)phenyl)-3-hydroxy-1-methyl-2-oxo-1,2-dihydropyridine-4-carboxamido)propoxy)benzoate] it was below 0.01 µM.
Turning to `Cn1c(-c2cc(F)cc(C(F)(F)F)c2)cc(C(=O)NCCCOc2ccc(Cl)c(Cl)c2)c(O)c1=O` [Example 77, N-(3-(3,4-dichlorophenoxy)propyl)-6-(3-fluoro-5-(trifluoromethyl)phenyl)-3-hydroxy-1-methyl-2-oxo-1,2-dihydropyridine-4-carboxamide], the half-maximal inhibitory concentration (IC50) is below 0.01 µM.
The same measure for `Cn1c(-c2cc(F)cc(C(F)(F)F)c2)cc(C(=O)NCCCOc2ccccc2[N+](=O)[O-])c(O)c1=O` [Example 81, 6-(3-fluoro-5-(trifluoromethyl)phenyl)-3-hydroxy-1-methyl-N-(3-(2-nitrophenoxy)propyl)-2-oxo-1,2-dihydropyridine-4-carboxamide]: below 0.01 µM; for `Cn1c(C(F)(F)F)cc(C(=O)NCCCOc2ccccc2Cl)c(O)c1=O` [Example 88, N-(3-(2-chlorophenoxy)propyl)-3-hydroxy-1-methyl-2-oxo-6-(trifluoromethyl)-1,2-dihydropyridine-4-carboxamide]: below 0.01 µM.
In the case of `Cn1c(C(F)(F)F)cc(C(=O)NCCCOc2ccccc2C(F)(F)F)c(O)c1=O` [Example 89, 3-hydroxy-1-methyl-2-oxo-6-(trifluoromethyl)-N-(3-(2-(trifluoromethyl)phenoxy)propyl)-1,2-dihydropyridine-4-carboxamide] it was below 0.01 µM.
As for `COc1c(C(=O)NCCCc2ccc(Cl)c(Cl)c2)ccn(C)c1=O` [Example 113, N-(3-(3,4-dichlorophenyl)propyl)-3-methoxy-1-methyl-2-oxo-1,2-dihydropyridine-4-carboxamide], the IC50 was found to be 5.82 µM.
With `CC(CCc1ccccc1)NC(=O)c1ccn(C)c(=O)c1O` (centres unmarked) [Example 126, 3-hydroxy-1-methyl-2-oxo-N-(4-phenylbutan-2-yl)-1,2-dihydropyridine-4-carboxamide], the IC50 was 2.46 µM.
Consider `Cn1ccc(C(=O)NCCc2ccccc2Cl)c(O)c1=O` [Example 127, N-(2-chlorophenethyl)-3-hydroxy-1-methyl-2-oxo-1,2-dihydropyridine-4-carboxamide], for which the IC50 amounted to 8.66 µM.
The same measure for `COc1ccc(CCNC(=O)c2ccn(C)c(=O)c2O)cc1` [Example 128, 3-hydroxy-N-(4-methoxyphenethyl)-1-methyl-2-oxo-1,2-dihydropyridine-4-carboxamide]: 6.62 µM; for `Cn1ccc(C(=O)NCc2ccc(C(F)(F)F)cc2)c(O)c1=O` [Example 129, 3-hydroxy-1-methyl-2-oxo-N-(4-(trifluoromethyl)benzyl)-1,2-dihydropyridine-4-carboxamide]: 3.56 µM.
For the molecule `Cn1ccc(C(=O)NCCc2ccc(C(F)(F)F)cc2)c(O)c1=O` [Example 136, 3-hydroxy-1-methyl-2-oxo-N-(4-(trifluoromethyl)phenethyl)-1,2-dihydropyridine-4-carboxamide], the half-maximal inhibitory concentration (IC50) was 2.2 µM.
With `CC(CNC(=O)c1ccn(C)c(=O)c1O)Oc1ccc(F)cc1` (centres unmarked) [Example 137, N-(2-(4-fluorophenoxy)propyl)-3-hydroxy-1-methyl-2-oxo-1,2-dihydropyridine-4-carboxamide], the IC50 came out at 1.66 µM.

The record behind these values is patent US8933235B2, “Pyridinedione carboxamide inhibitors of endothelial lipase” (Bristol-Myers Squibb Company, priority 2011, dated 2015).
